Data taken from US20170027917A1, “PHARMACEUTICAL COMPOSITIONS COMPRISING ANTIBACTERIAL AGENTS” (priority 2014, published 2017).
Like-named read-outs stand apart in the source and are kept apart here.

Experiments:
Assay in all cases: MIC determination in Muller Hinton Agar (CLSI agar dilution)
Format in all cases: cell-based
Citrobacter sp S123A = system: Citrobacter sp S123A
Description: (§1) The antibacterial activity of combinations according to the invention against resistant bacterial strains was investigated. Minimum Inhibitory Concentration (MIC) determination for the combinations according to invention was carried out in Muller Hinton Agar (MHA) (BD, USA) according to Clinical and Laboratory Standards Institute (CLSI) recommendations, (Clinical and Laboratory Standards Institute (CLSI), Performance Standards for Antimicrobial Susceptibility Testing, 20th Informational Supplement, M 100-S20, Volume 30, No. 1, 2010). In short, the test strains were adjusted to deliver about 10^4 CFU per spot with a multipoint inoculator (Applied Quality Services, UK). The plates were pored with MHA containing doubling concentration range of the test combinations according to invention. The plates were inoculated and were incubated at 35° C. for 18 hours.

K. pneumoniae H521 = conditions: Klebsiella pneumoniae
Description: as §1

E. coli S206 = conditions: Escherichia coli
Description: as §1

P. aeruginosa 2779 = conditions: Pseudomonas aeruginosa
Description: as §1

P. aeruginosa 1405 = conditions: Pseudomonas aeruginosa; P. aeruginosa 1405, Derepressed AmpC; agent alone
Description: as §1

E. coli M50 = conditions: Escherichia coli
Description: as §1

K. pneumoniae J102 = conditions: Klebsiella pneumoniae
Description: as §1

[1] = system: K. pneumoniae ATCC 700603; conditions: Klebsiella pneumoniae, ATCC700603
Description: as §1

E. coli NCTC 13352 = conditions: Escherichia coli, NCTC13352
Description: as §1

K. pneumoniae J125 = conditions: Klebsiella pneumoniae
Description: as §1

E. cloacae J137 = conditions: Enterobacter cloacae
Description: as §1

Structure (SMILES)	MIC (Citrobacter sp S123A) [µg/mL]	MIC (K. pneumoniae H521; H521) [µg/mL]	MIC (E. coli S206; S206) [µg/mL]	MIC (P. aeruginosa 2779; 2779) [µg/mL]	MIC (P. aeruginosa 1405) [µg/mL]	MIC (E. coli M50; M50) [µg/mL]	MIC (K. pneumoniae J102; J102) [µg/mL]	MIC [1] [µg/mL]	MIC (E. coli NCTC 13352) [µg/mL]	MIC (K. pneumoniae J125; J125) [µg/mL]	MIC (E. cloacae J137; J137) [µg/mL]	MIC (K. pneumoniae H521; K. pneumoniae H521, KPC, SHV, TEM, agent alone, read-out: MIC) [µg/mL]	MIC (E. coli S206; E. coli S206, Class C, agent alone, read-out: MIC) [µg/mL]	MIC (P. aeruginosa 2779; P. aeruginosa 2779, AmpC, agent alone, read-out: MIC) [µg/mL]	MIC (E. coli M50; E. coli M50, CMY-2, agent alone, read-out: MIC) [µg/mL]	MIC (K. pneumoniae J102; K. pneumoniae J102, OMP, SHV, TEM, agent alone, read-out: MIC) [µg/mL]	MIC ([1]; K. pneumoniae ATCC 700603, SHV-18, agent alone, read-out: MIC) [µg/mL]	MIC (E. coli NCTC 13352; E. coli NCTC 13352, TEM-10, agent alone, read-out: MIC) [µg/mL]	MIC (K. pneumoniae J125; K. pneumoniae J125, KPC3, SHV, TEM, agent alone, read-out: MIC) [µg/mL]	MIC (E. cloacae J137; E. cloacae J137, P99, agent alone, read-out: MIC) [µg/mL]
Cn1c(N)c(NC(=O)NCCN)c[n+]1CC1=C(C(=O)O)N2C(=O)[C@@H](NC(=O)/C(=N\OC(C)(C)C(=O)[O-])c3nsc(N)n3)[C@H]2SC1 [Ceftolozane]	> 32	> 32	> 32	4	8	> 32	> 32	4	> 32	32	> 32	–	–	–	–	–	–	–	–	–
C[C@@H](O)[C@H]1C(=O)N2C(C(=O)O)=C(SCCN=CN)C[C@H]12 [Imipenem]	4	–	–	–	16	–	–	–	–	–	–	32	0.25	2	0.5	4	0.5	0.25	8	1
